Source: US12350317B2, “Immunotherapy for the treatment and prevention of inflammatory bowel disease” (THE UAB RESEARCH FOUNDATION, priority 2019, dated 2025)

What was measured:
[1] = tested on: CBir1Tg CD4+CD44+ TM cells; test: CBir1Tg CD4+ TM cells co-cultured with APCs and MEP1 in vitro; format: cell-based, mouse
Experimental: (§3) (A) CBir1Tg CD4^+CD44^+ TM cells were isolated from the spleen, labeled with CFSE, and co-cultured with irradiated APCs isolated from C57BL/6 mice in the presence of 1 μg/ml of MEP1, and 100 nM rapamycin, 1 mM metformin, or both. Absolute numbers of live and proliferating CD4^+ T cells post 90 hrs of culturing are shown respectively. OVA p323-339 stimulation was used as negative control. (B) Strategy of adoptive transfer, immunization, and ablation of donor CD4^+ TM cells. […] Mice without challenge and mice treated with 0.2% CMC post challenge were used as controls. Lymphocytes were isolated from the spleen on Day 42 and analyzed with FACS. Representative plots of donor/host CD4^+, donor CD4^+ TM, Treg, and Tfh are shown in (C), whereas statistics of corresponding absolute numbers are shown in (D-G).
(§4) This was tested in vivo by targeting established microbiota antigen-specific CD4+ TM cells in the periphery. […] Upon antigen challenge, on days 28 and 35, recipient mice were treated with metformin, rapamycin, the combination of both, or drug vehicle for 5 consecutive days, respectively. Recipient mice with immunization but no antigen challenge were used as controls (FIG. 10B). Assessed by the absolute numbers recovered from the spleen.

[2] = tested on: donor CBir1Tg CD4+ TM cells; test: Ablation of pre-existing antigen-specific CD4+ TM cells in C57BL/6 mice upon MEP1 challenge; format: in vivo, mouse; settings: rapamycin 1 μg/g/day, metformin 150 μg/g/day i.p. 5 days after MEP1 challenge days 28 and 35; day 42
Experimental: as §3, §4

[3] = tested on: ribosomal protein S6 kinase; test: S6K phosphorylation in flagellin-specific CD4+ T cells from Crohn's patients; format: cell-based, human; settings: re-stimulation with pooled flagellin
Experimental: (§5) Microbiota flagellin-specific CD4^+ T cells were labeled with proliferation dye and re-stimulated with autologous APCs plus Fla mix in the presence of 50 nM rapamycin, 1 mM metformin, or both. Phosphorylation of S6K was examined after 6 hours of stimulation (H and K), whereas CD4^+ T cell survival (I and L) and proliferation (J and M) were examined after 6-7 days.
(§6) Therefore, in order to target the metabolism of both naïve and memory CD4+ subsets, rapamycin, metformin, or both were tested, for their inhibitory effects on these cells post expansion.
Therefore, in order to target the metabolism of both naïve and memory CD4^+ subsets, rapamycin, metformin, or both, were tested for their inhibitory effects on these cells post expansion.

[4] = tested on: microbiota flagellin-specific CD4+ T cells; test: Survival, proliferation and cytokine production of flagellin-specific CD4+ T cells from Crohn's patients; settings: for Cytokine production (IFNγ, TNFα and IL-17A) upon re-stimulation: 6-7 hours re-stimulation with APCs and Fla mix
Experimental: as §5
Expanded CD154^+ antigen-specific CD4^+ T cells were re-stimulated with autologous APCs and Fla mix, Fla mix with rapamycin, Fla mix with metformin, or Fla mix with rapamycin and metformin for 6-7 hours, with BFA added for the last 4 hours. CD4^+ T cells stimulated with CD3/CD28 beads were used as a positive control, whereas cells with no antigen added were used as a negative control. The cells were then stained for cytokines (TNF and IL-17A), activation of mTOR via the downstream marker phospho-S6K and analyzed by flow cytometry.
as §6

[5] = tested on: S6 kinase (S6K); test: S6K phosphorylation in naive CBir1Tg CD4+ T cells co-cultured with APCs and MEP1; format: cell-based, mouse; settings: 100 nM rapamycin, APCs and MEP1, 20 hrs
Experimental: (§1) CBir1Tg CD4^+CD44-naïve T cells were isolated from the spleen and co-cultured with irradiated antigen-presenting-cells (APCs) isolated from C57BL/6 mice, in the presence of 1 μg/ml of MEP1 with (blue) or without (red) 100 nM rapamycin. Phosphorylation of S6K in CBir1Tg CD4^+ T cells was examined after 20 hrs of stimulation. CBir1Tg CD4^+ T cell viability, uptake of fluorescent glucose analog 2-NBDG, proliferation, and Treg induction were determined with FACS after 90 hrs of co-culture. OVA p323-339 stimulation was used as a negative control (grey). Representative flow plots are shown in (A-D, and I), and statistics of 3 replicated experiments are shown in (E-H, and J). For in vitro and in vivo suppression assays, naïve CD4+ cells were isolated from CBir1Tg·Foxp3gfp spleen and cultured with MEP1 and rapamycin for 6 days for Treg induction. Then live CD4^+CD25^+GFP^+ Treg cells were sorted with flow cytometry as CBir1Tg iTreg Rapa. Live CD4^+CD25^+GFP^+ cells freshly isolated from naïve CBir1Tg·Foxp3gfp spleen were used as control (CBir1Tg tTreg) for suppression assay in vitro. CFSE labeled responder CD4+CD44-(Tn) cells were isolated from congenic CBir1Tg or C57BL/6 mouse and co-cultured with indicated ratios of CBir1Tg Treg cells in the presence of 1 μg/ml MEP1 or anti-mouse-CD3 and APCs for 3.5 days. […]

[6] = tested on: CBir1Tg CD4+CD44- naive T cells; test: Naive CBir1Tg CD4+ T cell glucose uptake, viability, proliferation and Treg induction in vitro; format: cell-based, mouse
Experimental: as §1, with “CBir1Tg CD4^+ T cell viability, uptake of fluorescent glucose analog 2-NBDG, proliferation, and Treg induction were determined with FACS after 90 hrs of co-culture.” left out, “days. Representative graphs of antigen-specific and bystander suppression are shown in (K and M), respectively, and accumulated percentage of suppression are shown in (L and N).” for “days.”

[7] = molecular target: DR0701 (HLA-DR7); test: Flagellin peptide binding to HLA-DR (DR0701); parameters: species or system human; settings: <20 = high affinity, 20-100 moderate affinity
Text: (§2) CD4+ T cell effectors mediate colitis in mouse models. These effectors, for example, Th1 and Th17 are short-lived. The CD4+ T cell memory pool is a reservoir of chronicity and regenerating T effector cells. CD4+ TM cells are widely distributed in CBir1 TCR Tg mice (FIG. 1). Flagellin specific T cells can cause murine colitis, mainly Th17 mediated. Anti-CBir1 was detected in 50% of Crohn's patients and in multiple mouse models. The presence of anti-Cbir1 in CD patients is associated with small bowel (SB) involvement, fibrostenosis and internal perforating phenotypes, independent of anti-Saccharomyces cerevisiae antibodies (ASCA), anti-[…] antibodies and anti-OmpC antibodies. A subset of Crohn's patients has broad IgG reactivity to microbiota flagellins (FIG. 2). Flagellins have promiscuous T cell receptor epitopes. Therefore, whether microbiota flagellins contain epitope peptides that are broadly reactive in humans and can stimulate both TM and Tregs across a population of patients with Crohn's disease was studied. Peptides predicted to bind to 8 or more HLA-DRB1 molecules and to mouse H-2^b or H-2^d were studied. Thirty predicted flagellin epitopes were tested for binding to the four most common HLA-DR dimers (HLA-DR3, HLA-DR7, HLA-DR11 and HLA-DR15). All predicted flagellin epitopes bound at least one of the four HLA-DR dimers, and twenty of the predicted epitopes bound two or more.

[8] = molecular target: DR1501 (HLA-DR15) (Homo sapiens, UniProt P01903+P01911); test: Flagellin peptide binding to HLA-DR (DR1501); settings: <20 = high affinity, 20-100 moderate affinity
Text: as §2

[9] = molecular target: DR1101 (HLA-DR11) (Homo sapiens, UniProt P01903+P01911, A100R/A169T/A87E/I96F/K41T/L162R/M171V/P40S/Q125H/Q178H/Q39Y/Q99D/R42S/S66Y/T262R/V115G/W38E); test: Flagellin peptide binding to HLA-DR (DR1101); settings: <20 = high affinity, 20-100 moderate affinity
DR1101 (HLA-DR11), sequence (P01903 26-254, other chains not shown): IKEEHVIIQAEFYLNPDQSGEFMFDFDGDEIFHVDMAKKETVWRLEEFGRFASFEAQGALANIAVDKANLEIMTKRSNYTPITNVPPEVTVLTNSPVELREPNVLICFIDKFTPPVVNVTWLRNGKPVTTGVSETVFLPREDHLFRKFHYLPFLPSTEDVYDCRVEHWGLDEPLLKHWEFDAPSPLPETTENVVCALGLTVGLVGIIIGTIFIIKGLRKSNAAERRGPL
Text: as §2

In the case of `CN(C)C(=N)N=C(N)N` [metformin], the “Cell death / survival and inhibition of cell proliferation of CD4+ TM cells” value [1] is reported as “comparable effect, or even worse, than rapamycin”, the “Expansion of CBir1Tg CD4+ cells after antigen challenge (absolute numbers in spleen)” value [2] is reported as “no inhibitory result” and the “Inhibitory effect on the mTOR pathway” value ([3]; 1 mM metformin alone) is reported as “no inhibitory effect”. The Cell death ([4]; 50 nM rapamycin or 1 mM metformin, 6-7 days) was “lesser extent of increased cell death”, the Cell proliferation ([4]; 50 nM rapamycin, 1 mM metformin, or both, 6-7 days) was “decreased proliferation” and the “Cytokine production (IFNγ, TNFα and IL-17A) upon re-stimulation” value [4] was “neither rapamycin or metformin treatment altered the cytokine production”.
`CO[C@H]1C[C@@H]2CC[C@@H](C)[C@@](O)(O2)C(=O)C(=O)N2CCCC[C@H]2C(=O)O[C@H]([C@H](C)C[C@@H]2CC[C@@H](O)[C@H](OC)C2)CC(=O)[C@H](C)/C=C(\C)[C@@H](O)[C@@H](OC)C(=O)[C@H](C)C[C@H](C)/C=C/C=C/C=C/1C` [rapamycin] was tested, and the “Reduction of phosphorylation of S6 kinase (S6K)” value [5] was “roughly 60%”, the “Reduction of cell proliferation” value ([6]; 100 nM rapamycin, in presence of cognate antigen MEP1, 90 hrs) was “roughly 10 fold” and the “Increase of Treg cells in percentage” value ([6]; MEP1 and rapamycin vs MEP1 alone) was 20 fold. For the same molecule, the “Reduction of phosphorylation of S6K compared to antigen alone” value ([3]; 50 nM rapamycin, 6 hours) was ~50% and the “Cytokine production (IFNγ, TNFα and IL-17A) upon re-stimulation” value [4] was “no effect”.
MATEMVKYSNANILSQAGQ [CBir1 p456-475] was tested, and the “EC50 Ratio” value [7] was 3.7 and the “EC50 Ratio” value [8] was 0.32.
“MVVQHNLRAMNANRMLGIT [A4 Fla3 p1-19, Lachnospiraceae A4 Fla3 flagellin peptide 1-19]” was tested, and the “EC50 Ratio” value [7] was 2.5, the “EC50 Ratio” value [9] was 0.2 and the “EC50 Ratio” value [8] was 0.32.
In the case of “MVVQHNLRAMNSNRMLGITQ [FlaX p1-20, Lachnospiraceae FlaX flagellin peptide 1-20]”, the “EC50 Ratio” value [8] is reported as 0.33.
